# Data from patent EP3035931B1, “COMPOSITION FOR REDUCING NERVOUS SYSTEM INJURY AND METHOD OF MAKING AND USE THEREOF” (Morehouse School of Medicine, priority 2013, dated 2015).
# Assays:
# cortical neurons = format: cell-based, mouse
# Description: (§1) Background absorbance at 620 was subtracted.
# Acid-induced injury was studied on neurons grown on 24-well plates incubated in either pH 7.4 or 6.0 ECF containing MK801, CNQX, and nimodipine; see FIG. 8. Cell injury was assayed by the measurement of lactate dehydrogenase (LDH) release (Koh and Choi, J. Neurosci., 1987, 20:83-90) at various time points (FIGS. 8A and 8B) and by fluorescent staining of alive/dead cells. Compared to neurons treated at pH 7.4, 1 hr acid incubation (pH 6.0) induced a time-dependent increase in LDH release (FIG. 8A). After 24 hr, 45.7% ± 5.4% of maximal LDH release was induced (n=25 wells). Continuous treatment at pH 6.0 induced greater cell injury (FIG. 8B, n=20).
# Na^+/Ca^2+ ion exchanger = settings: cited from earlier work
# [1] = Mouse 60 min MCAO, intravenous injection, infarct volume; format: in vivo; settings: mice, intravenous injection 1, 3 or 5 hours after MCAO, FIG. 19
# ASIC1^-/- neurons = format: cell-based, mouse; settings: ASIC1^-/- neurons; n=8 each
# Description: Following anesthesia with halothane, cerebral cortices were dissected from E16 Swiss mice or P1 ASIC1+/+ and ASIC1-/- mice and incubated with 0.05% trypsin-EDTA for 10 min at 37° C. Tissues were then triturated with fire-polished glass pipettes and plated on poly-L-ornithine-coated 24-well plates or 25x25 mm glass coverslips at a density of 2.5x10^5 cells per well or 10^6 cells per coverslip. Neurons were cultured with MEM supplemented with 10% horse serum (for E16 cultures) or Neurobasal medium supplemented with B27 (for PI cultures) and used for electrophysiology and toxicity studies after 12 days. Glial growth was suppressed by addition of 5-fluoro-2-deoxyuridine and uridine, yielding cultured cells with 90% neurons as determined by NeuN and GFAP staining (data not shown).
# as §1
# . […] . In contrast to acid incubation, 1 hr treatment of ASIC1^-/- neurons with 1 mM NMDA+10 µM glycine (in Mg^2+-free [pH 7.4] ECF) induced 84.8% ± 1.4% of maximal LDH release at 24 hr (n=4, FIG. 9C), indicating normal response to other cell injury processes.
# [2] = tested on: COS-7 cells stably transfected with ASIC1a; assay: Acid-induced LDH release in ASIC1a-transfected COS-7 cells; settings: 100 µM; 1 hr pH 6.0, LDH 24 hr after acid incubation
smiles,measurement,setting,value
N=C(N)NC(=O)c1nc(Cl)c(N)nc1N [amiloride],LDH release at 24 hr,"cortical neurons; 100 µM amiloride 10 min before and during 1 hr pH 6.0 incubation, without blocker 45.3% ± 3.8%",31.1% ± 2.5%
same,LDH release induced by 1 hr acid incubation of ASIC^+/+ neurons,"cortical neurons; pH 6.0, n=8-12",reduced
same,baseline LDH release,cortical neurons; pH 7.4 ECF for 1 hr,did not affect
same,"LDH release, prolonged incubation with amiloride alone","cortical neurons; prolonged incubation (e.g., 5 hr), n=8",increased LDH release
same,IC50,Na^+/Ca^2+ ion exchanger,1100 µM
same,infarct volume,[1],effectively reduce infarct volume
same,effect on acid-induced LDH release after knockout of the ASIC1 gene,ASIC1^-/- neurons,eliminated the effect
same,acid-induced LDH release,[2],inhibited
